Assay results: ChEMBL document CHEMBL1201862, “PubChem BioAssay data set” (2004)
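These data come from cells grown in 96-well plates and exposed to compound for 48 hours at five concentrations. At the GI50, growth is halved.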 Activity calls are given as the source filed them. No stated cut-off is given here; in the data, active = GI50 up to about 1.1 µM and inactive = higher.

Assays:
Experiment in all cases: NCI anticancer screen, dose series, 48 h
SNB-75 = test system: SNB-75
NCI-H522 = test system: NCI-H522
HOP-62 = test system: HOP-62
SF-268 = test system: SF-268
NCI-H23 = test system: NCI-H23
Malme-3M = test system: Malme-3M
EKVX = test system: EKVX
MOLT-4 = test system: MOLT-4
RXF 393 = test system: RXF 393
SF-295 = test system: SF-295
LOX IMVI = test system: LOX IMVI
NCI-H460 = test system: NCI-H460
HCT-116 = test system: HCT-116
SF-539 = test system: SF-539
HCT-15 = test system: HCT-15
SW-620 = test system: SW-620
HOP-92 = test system: HOP-92
SN12C = test system: SN12C
TK-10 = test system: TK-10
HT-29 = test system: HT-29

SMILES: CC/C(=C\c1ccc(OC)cc1)c1ccc(OC)cc1
- GI50 (SNB-75): > 100 µM (inactive)
- GI50 (NCI-H522): > 100 µM (inactive)
- GI50 (HOP-62): > 100 µM (inactive)
- GI50 (SF-268): > 100 µM (inactive)
- GI50 (NCI-H23): 86.3 µM (inactive)
- GI50 (Malme-3M): 50.7 µM (inactive)
- GI50 (EKVX): > 100 µM (inactive)
- GI50 (MOLT-4): 52.5 µM (inactive)
- GI50 (RXF 393): 60.8 µM (inactive)
- GI50 (SF-295): 53.3 µM (inactive)
- GI50 (LOX IMVI): 70.6 µM (inactive)
- GI50 (NCI-H460): > 100 µM (inactive)
- GI50 (HCT-116): > 100 µM (inactive)
- GI50 (SF-539): > 100 µM (inactive)
- GI50 (HCT-15): 74 µM
- GI50 (SW-620): > 100 µM (inactive)
- GI50 (HOP-92): 69.7 µM (inactive)
- GI50 (SN12C): > 100 µM (inactive)
- GI50 (TK-10): > 100 µM (inactive)
- GI50 (HT-29): 37.5 µM (inactive)

SMILES: C(#CC1(Nc2ccccc2)CCN(Cc2ccccc2)CC1)C1(Nc2ccccc2)CCN(Cc2ccccc2)CC1
- GI50 (SNB-75): 10 µM (inactive)
- GI50 (NCI-H522): 24.8 µM (inactive)
- GI50 (HOP-62): 16.7 µM (inactive)
- GI50 (SF-268): 29.1 µM (inactive)
- GI50 (NCI-H23): 37.8 µM (inactive)
- GI50 (Malme-3M): 3.17 µM (inactive)
- GI50 (EKVX): 40.6 µM (inactive)
- GI50 (MOLT-4): 4.17 µM (inactive)
- GI50 (RXF 393): 12.5 µM (inactive)
- GI50 (SF-295): 22.3 µM (inactive)
- GI50 (LOX IMVI): 5.14 µM (inactive)
- GI50 (NCI-H460): 16.3 µM (inactive)
- GI50 (HCT-116): 19.4 µM (inactive)
- GI50 (SF-539): 5.5 µM (inactive)
- GI50 (HCT-15): 22.2 µM
- GI50 (SW-620): 11.2 µM (inactive)
- GI50 (HOP-92): 4.95 µM (inactive)
- GI50 (SN12C): 24.2 µM (inactive)
- GI50 (TK-10): 13.2 µM (inactive)
- GI50 (HT-29): 4.72 µM (inactive)

SMILES: OCCO[P+]1(OCCO)n2c3ccc2C(c2ccccc2)=C2C=CC(=N2)C(c2ccccc2)=c2ccc(n21)=C(c1ccccc1)C1=NC(=C3c2ccccc2)C=C1
- GI50 (SNB-75): < 0.0144 µM (active)
- GI50 (NCI-H522): 0.0405 µM (active)
- GI50 (HOP-62): 0.0708 µM (active)
- GI50 (SF-268): 0.0263 µM (active)
- GI50 (NCI-H23): 0.0327 µM (active)
- GI50 (Malme-3M): 0.0408 µM (active)
- GI50 (EKVX): 0.104 µM (active)
- GI50 (MOLT-4): 0.0545 µM (active)
- GI50 (RXF 393): 0.182 µM (active)
- GI50 (SF-295): 0.15 µM (active)
- GI50 (LOX IMVI): 0.022 µM (active)
- GI50 (NCI-H460): 0.0378 µM (active)
- GI50 (HCT-116): 0.0218 µM (active)
- GI50 (SF-539): 0.0335 µM (active)
- GI50 (HCT-15): 1.16 µM
- GI50 (SW-620): 0.129 µM (active)
- GI50 (HOP-92): 0.0382 µM (active)
- GI50 (SN12C): 0.0253 µM (active)
- GI50 (TK-10): 0.119 µM (active)
- GI50 (HT-29): 0.0281 µM (active)
